Source: patent US7232912B2, “Indazole compounds, pharmaceutical compositions, and methods for mediating or inhibiting cell proliferation” (Agouron Pharmaceuticals, Inc., priority 2000, dated 2007)

Assays:
FGFR1 tyrosine kinase = biological target: T1, FGFR1 tyrosine kinase (Homo sapiens, UniProt P11362, C488A/C584S/L457V); assay: Inhibition of phosphorylated FGF receptor tyrosine kinase activity; type: biochemical; details: for inhibition at 1 µM: read-out: FGF % Inhib. at 1 μM
T1 construct: the cytosolic domain of FGFR1 tyrosine kinase (amino acids 456–766); made in house; host or cells: Sf9 insect cells (baculovirus)
Description: Inhibition of Phosphorylated FGF Receptor and LCK Tyrosine Kinase Activity
Cloning, expression and purification of the cytosolic domain of FGFR1 tyrosine kinase (amino acids 456–766) containing three amino acid substitutions (L457V, C488A, and C584S) were conducted as previously described (Mohammadi, M., Schlessinger, J., & Hubbard, S. R. (1996) Cell 86, 577–587). This domain was expressed in Sf9 insect cells using a baculovirus expression vector, and protein was purified using conventional techniques. The LCK tyrosine kinase was expressed in insect cells as an N-terminal deletion starting from amino acid 223 to the end of the protein at amino acid 509. The N-terminus of the protein also had two amino acid substitutions, P223M and C 224D. Kinases were purified using conventional chromatographic methods.
Tyrosine kinase activity was measured using a coupled, continuous spectrophotometric assay, in which production of phosphorylated poly(Glu, Tyr; 4:1) substrate and ADP is coupled to the pyruvate kinase-catalyzed transfer of a phosphate from phosphoenolpyruvate to ADP, with generation of pyruvate and regeneration of ATP. Pyruvate production is in turn coupled to the lactate dehydrogenase-catalyzed reduction of pyruvate to form lactate, with concomitant conversion of NADH to NAD+. Loss of NADH is monitored by measuring absorbance at 340 nm (see e.g., Technikova-Dobrova et al., “Spectrophotometric determination of functional characteristics of protein kinases with coupled enzymatic assay,” FEBS Letters, vol. 292 (1991), pp. 69–72). Enzyme activity was measured in the presence of 200 mM HEPES (pH 7.5), 2 mM phosphoenolpyruvate, 0.3 mM NADH, 20 mM MgCl2, 100 μM ATP, 5 mM DTT, 5.1 or 25 mM poly (Glu,Tyr) 4:1 for P-FGF or P-LCK assays, respectively, and 15 units/mL each of pyruvate kinase and lactate dehydrogenase. Phosphorylated FGF receptor kinase was present at 100 nM and phosphorylated LCK kinase was present at 50 nM. Assays were performed under initial rate conditions at 37° C., and rates were corrected for any background rate measured in the absence of enzyme. Percent inhibition was calculated relative to control enzyme assayed in the presence of 2% (v/v) DMSO.

CDK2/cyclin A = biological target: T2, CDK2/cyclin A (Homo sapiens, UniProt P24941); assay: Inhibition of CDK2/Cyclin A Retinoblastoma Kinase Activity; type: biochemical; details: apparent Ki
T2 construct: made in house; host or cells: CDK2: insect cells (baculovirus); cyclin A: E. coli
Description: (§1) Cyclin-dependent kinase activity was measured by quantifying the enzyme-catalyzed, time-dependent incorporation of radioactive phosphate from [^32P]ATP or [^33P]ATP into a protein substrate. Unless noted otherwise, assays were performed in 96-well plates in a total volume of 50 μL, in the presence of 10 mM HEPES (N-[2-hydroxyethyl]piperazine-N′-[2-ethanesulfonic acid]) (pH 7.4), 10 mM MgCl2, 25 μM adenosine triphosphate (ATP), 1 mg/mL ovalbumin, 5 μg/mL leupeptin, 1 mM dithiothreitol, 10 mM beta-glycerophosphate, 0.1 mM sodium vanadate, 1 mM sodium fluoride, 2.5 mM ethylene glycol-bis(β-aminoethyl ethKer)-N,N,N′N′-tetraacetic acid (EGTA), 2% (v/v) dimethylsulfoxide, and 0.03–0.4 μCi [^32/33P]ATP per reaction. Reactions were initiated with appropriate enzyme, incubated at 30° C., and terminated after 20 minutes by the addition of ethylenediaminetetraacetic acid (EDTA) to 250 mM. The phosphorylated substrate was then captured on a nitrocellulose or phosphocellulose membrane using a 96-well filtration manifold, and unincorporated radioactivity was removed by repeated washing with 0.85% phosphoric acid. Radioactivity was quantified by exposing the dried membranes to a phosphorimager.
(§2) Apparent Ki values were measured by assaying enzyme activity in the presence of different inhibitor compound concentrations and subtracting the background radioactivity measured in the absence of enzyme. Inhibition data were fit to an equation for competitive inhibition using Kaleidagraph (Synergy Software), or were fit to an equation for competitive tight-binding inhibition using the software KineTic (BioKin, Ltd.).
Inhibition of CDK2/Cyclin A Retinoblastoma Kinase Activity
CDK2 was purified using published methodology (Rosenblatt et al., “Purification and Crystallization of Human Cyclin-dependent Kinase 2,” J. Mol. Biol., vol. 230, 1993, pp. 1317–1319) from insect cells that had been infected with a baculovirus expression vector. […] A complex of CDK2 and proteolyzed cyclin A was prepared and purified by gel filtration. The substrate for this assay was the same Rb substrate fragment used for the CDK4 assays, and the methodology of the CDK2/cyclin A and the CDK4/cyclin D3 assays was essentially the same, except that CDK2 was present at 150 nM or 5 nM. Ki values were measured as described above.

HCT 116 cell line = assay: Inhibition of Cell Growth (MTT tetrazolium salt assay); type: cell-based; details: Homo sapiens, HCT 116, MTT; for IC50: 50% inhibition of growth, read-out: HCT 116 IC50; for IC90: read-out: HCT 116 IC90
Description: Inhibition of Cell Growth: Assessment of Cytotoxicity
Inhibition of cell growth was measured using the tetrazolium salt assay, which is based on the ability of viable cells to reduce 3-(4,5-dimethylthiazol-2-yl)-2,5-[2H]-diphenyltetrazolium bromide (MTT) to formazan (Mossman, Journal of Immunological Methods, vol. 65 (1983), pp. 55–58). The water-insoluble purple formazan product was then detected spectrophotometrically. The HCT 116 cell line was grown in 96-well plates. Cells were plated in the appropriate medium at a volume of 135 μl/well in McCoy's 5A Medium. Plates were incubated for four hours before addition of inhibitor compounds. Different concentrations of inhibitor compounds were added in 0.5% (v/v) dimethylsulfoxide (15 μL/well), and cells were incubated at 37° C. (5% CO2) for four to six days (depending on cell type). At the end of the incubation, MTT was added to a final concentration of 0.2 mg/mL, and cells were incubated for 4 hours more at 37° C. After centrifugation of the plates and removal of medium, the absorbance of the formazan (solubilized in dimethylsulfoxide) was measured at 540 nm. The concentration of inhibitor compound causing 50% inhibition of growth was determined from the linear portion of a semi-log plot of inhibitor concentration versus percentage inhibition. All results were compared to control cells treated only with 0.5% (v/v) dimethylsulfoxide.

CDK4/cyclin D3 = CDK4/cyclin D3 (Homo sapiens, UniProt P11802); assay: Inhibition of CDK4/Cyclin D Retinoblastoma Kinase Activity; type: biochemical; details: apparent Ki
Description: as §1, §2
Inhibition of CDK4/Cyclin D Retinoblastoma Kinase Activity
A complex of human CDK4 and cyclin D3, or a complex of human CDK4 and genetically truncated (1–264) cyclin D3, was purified using traditional biochemical chromatographic techniques from insect cells that had been co-infected with the corresponding baculovirus expression vectors (see e.g., Meijer and Kim, “Chemical Inhibitors of Cyclin-Dependent Kinases,” Methods in Enzymol,. vol. 283 (1997), pp. 113–128.). The enzyme complex (5 or 50 nM) was assayed with 0.3–0.5 μg of purified recombinant retinoblastoma protein fragment (Rb) as a substrate. The engineered Rb fragment (residues 386–928 of the native retinoblastoma protein; 62.3 kDa) contains the majority of the phosphorylation sites found in the native 106-kDa protein, as well as a tag of six histidine residues for ease of purification. Phosphorylated Rb substrate was captured by microfiltration on a nitrocellulose membrane and quantified using a phosphorimager as described above. For measurement of tight-binding inhibitors, the enzyme complex concentration was lowered to 5 nM, and the assay duration was extended to 60 minutes, during which the time-dependence of product formation was linear.

T1 sequence (P11362 456-766 L457V/C488A/C584S): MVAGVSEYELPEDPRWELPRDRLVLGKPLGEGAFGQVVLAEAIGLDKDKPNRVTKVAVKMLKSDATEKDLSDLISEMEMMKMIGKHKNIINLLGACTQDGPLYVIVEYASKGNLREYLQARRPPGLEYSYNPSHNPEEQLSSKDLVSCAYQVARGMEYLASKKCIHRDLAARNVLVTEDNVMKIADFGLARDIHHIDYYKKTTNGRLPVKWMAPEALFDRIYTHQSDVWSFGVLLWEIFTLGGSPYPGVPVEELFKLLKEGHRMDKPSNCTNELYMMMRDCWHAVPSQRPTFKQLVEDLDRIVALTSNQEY
CDK4/cyclin D3, sequence (P11802 2-303 limits assumed): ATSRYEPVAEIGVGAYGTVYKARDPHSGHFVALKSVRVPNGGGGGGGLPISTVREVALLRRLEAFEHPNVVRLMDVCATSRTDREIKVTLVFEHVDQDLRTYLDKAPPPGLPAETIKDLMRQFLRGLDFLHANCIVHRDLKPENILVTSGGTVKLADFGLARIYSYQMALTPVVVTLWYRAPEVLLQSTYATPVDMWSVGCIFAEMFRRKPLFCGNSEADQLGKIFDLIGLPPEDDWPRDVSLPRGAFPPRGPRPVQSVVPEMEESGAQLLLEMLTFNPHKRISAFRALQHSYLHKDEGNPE
CDK4/cyclin D3, sequence (P30281 1-264 limits assumed, further chain): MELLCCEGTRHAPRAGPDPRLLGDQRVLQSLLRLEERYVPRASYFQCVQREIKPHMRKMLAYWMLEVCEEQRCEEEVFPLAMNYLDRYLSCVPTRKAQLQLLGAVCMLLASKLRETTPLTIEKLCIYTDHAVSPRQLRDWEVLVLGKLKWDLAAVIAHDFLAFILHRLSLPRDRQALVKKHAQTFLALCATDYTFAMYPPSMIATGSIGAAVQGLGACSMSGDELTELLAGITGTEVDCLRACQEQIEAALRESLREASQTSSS

Row | SMILES | inhibition at 1 µM (FGFR1 tyrosine kinase) [%] | Ki (CDK2/cyclin A) [nM] | IC50 (HCT 116 cell line) [nM] | IC90 (HCT 116 cell line) [nM] | Ki (CDK4/cyclin D3) [nM] | Ki (FGFR1 tyrosine kinase) [nM]
1 | C(=C\c1n[nH]c2ccc(-c3ccnc4ccccc34)cc12)/c1ccccc1 [Example 17, 4-[3-((E)-Styryl)-1H-indazol-5-yl]-quinoline] | 42.6 | 1400 | 3200 | 5000 | – | –
2 | Clc1cccc2[nH]c(-c3n[nH]c4ccc(-c5cncc6ccccc56)cc34)nc12 [Example 19, 4-[3-(4-Chloro-1H-benzoimidazol-2-yl)-1H-indazol-5-yl]-isoquinoline] | 31.3 | 1 | 780 | 1600 | 54 | –
3 | CN1CCN(c2ccc3[nH]c(-c4n[nH]c5ccc(-c6cncc7ccccc67)cc45)nc3c2)CC1 [Example 20, 4-{3-[5-(4-Methyl-piperazin-1-yl)-1H-benzoimidazol-2-yl]-1H-indazol-5-yl}-isoquinoline] | 96.9 | 0.93 | 70 | 400 | 2.1 | –
4 | Cc1c(-c2ccc3[nH]nc(/C=C/c4ccccc4)c3c2)ccc(CCCO)c1O [Example 22, 6-(3-Hydroxy-propyl)-2-methyl-3-[3-((E)-styryl)-1H-indazol-5-yl]-phenol] | 93.5 | 94 | 5000 | 5000 | 15 | –
5 | Cc1c(O)cccc1-c1ccc2[nH]nc(-c3nc4c(CO)cccc4[nH]3)c2c1 [Example 23, 3-[3-(4Hydroxymethyl-1H-benzoimidazol-2-yl)-1H-indazol-5-yl]-2-methyl-phenol] | – | 41 | 4000 | 5000 | 65 | 800
6 | C(=C\c1n[nH]c2ccc(-c3ccc4ccncc4c3)cc12)/c1ccccc1 [Example 24, 7-[3-((E)Styryl)-1H-indazol-5-yl]-isoquinoline] | 45.4 | 1100 | – | – | 690 | –
7 | c1ccc2c(-c3ccc4[nH]nc(-c5nc6ccccc6[nH]5)c4c3)cncc2c1 [Example 25, 4-[3-(1H-Benzoimidazol-2-yl)-1H-indazol-5-yl]-isoquinoline] | – | 1 | 330 | 1100 | 10 | 440
8 | OCCc1cccc2[nH]c(-c3n[nH]c4ccc(-c5cncc6ccccc56)cc34)nc12 [Example 30] | 52.4 | 1 | 180 | 620 | 11 | –
9 | COc1c(O)cccc1-c1ccc2[nH]nc(-c3nc4ccccc4[nH]3)c2c1 [Example 47, 3-[3-(1H-benzoimidazol-2-yl)-1H-indazol-5-yl]-2-methoxy-phenol] | 81.1 | 100 | 2100 | 5000 | 94 | –

The remaining lines, values ahead:

Row | inhibition at 1 µM (FGFR1 tyrosine kinase) [%] | Ki (CDK2/cyclin A) [nM] | IC50 (HCT 116 cell line) [nM] | IC90 (HCT 116 cell line) [nM] | Ki (CDK4/cyclin D3) [nM] | Ki (FGFR1 tyrosine kinase) [nM] | SMILES
10 | 29.7 | 0.25 | 86 | 230 | 0.41 | – | CNCc1cccc2[nH]c(-c3n[nH]c4ccc(-c5cncc6ccccc56)cc34)nc12 [Example 32, [2-(5-Isoquinolin-4-yl-1H-indazol-3-yl)-1H-benzoimidazol-4-yl-methyl]-methyl-amine]
11 | 51.6 | 1 | 55 | 160 | 1.1 | – | c1ccc2c(-c3ccc4[nH]nc(-c5nc6c(CN7CCCC7)cccc6[nH]5)c4c3)cncc2c1 [Example 33, 4-[3-(4Pyrrolidin-1-ylmethyl-1H-benzoimidazol-2-yl)-1H-indazol-5-yl]-isoquinoline]
12 | 26.9 | 1 | 200 | 580 | 19 | – | c1ccc2c(-c3ccc4[nH]nc(-c5nc6c(CCN7CCCC7)cccc6[nH]5)c4c3)cncc2c1 [Example 34, 4-{3-[4-(2-Pyrrolidin-1-yl-ethyl)-1H-benzoimidazol-2-yl]-1H-indazol-5-yl]-isoquinoline]
13 | 40.5 | 1 | 130 | 370 | 3.2 | – | CC(CO)CNCc1cccc2[nH]c(-c3n[nH]c4ccc(-c5cncc6ccccc56)cc34)nc12 (centres unmarked) [Example 35, 3-{[2-(5-Isoquinolin-4-yl-1H-indazol-3-yl)-1H-benzoimidazol-4-ylmethyl]-amino}-2-methyl-propan-1-ol]
14 | 59.6 | 29 | 1900 | 5000 | 15 | – | Cc1ccncc1-c1ccc2[nH]nc(/C=C/c3ccccc3)c2c1 [Example 43, 5-(4Methyl-pyridin-3-yl)-3-(E)styryl-1H-indazole]
15 | 56.2 | 29 | 5000 | 5000 | 19 | – | Fc1cccc2cncc(-c3ccc4[nH]nc(/C=C/c5ccccc5)c4c3)c12 [Example 44]
16 | 86.7 | 49 | 2300 | 4800 | 95 | – | Oc1ccc(F)c(-c2ccc3[nH]nc(-c4nc5ccccc5[nH]4)c3c2)c1F [Example 49, 3-[-3-(1H-Benzoimidazol-2-yl)-1H-indazol-5-yl]-2,4-difluoro-phenol]
